Measurements as given in US12247914B2, “Virus sensing in exhaled breath by infrared spectroscopy” (Vox Biomedical LLC, priority 2017, dated 2025).
Read-outs that look alike come from different tables or passages of the source.

Legend:
subjects [1] = experiment: Percent of impaired subjects by Standardized Field Sobriety Tests after smoking; type: in vivo; settings: about an hour after smoking cessation
Procedure: (§1) The high lipid solubility of cannabinoids results in their persisting in the body for long periods of time. Even after a single administration of THC, detectable levels of THC can be found in the body for weeks or longer. […] There are three accepted laboratory methods for detecting THC in individuals that have smoked or ingested marijuana: (1) urine testing, for which passive inhalation up to 22 minutes for infrequent users can be detected for 7-10 days after inhalation, with longer periods for heavy users, (2) hair testing, with THC being detectible for up to 90 days after inhalation, and (3) blood and oral fluid testing, for which THC can be detected for 2-24 hours after use in most cases, but for up to 2 weeks in some heavy users. A detailed investigation of the relationship between time after marijuana smoking and relative subject impairment provides an estimate of the relative degree of impairment (defined under Standardized Field Sobriety Tests) as a function of time after smoking various smoke concentrations of THC is shown in Table 1.

[2] = Blood THC concentration versus time after smoking; type: in vivo; settings: about an hour after smoking cessation
Procedure: as §1

subjects [3] = settings: cited from earlier work
[4] = cited from earlier work
[5] = cited from earlier work; remark: listed apart in the source
[6] = dose 1.74% THC smoked, Time 1 (0-5 mins) after smoking
[7] = dose 1.74% THC smoked, Time 2 (50-55 mins) after smoking
[8] = dose 1.74% THC smoked, Time 3 (100-105 mins) after smoking
[9] = dose 2.93% THC smoked, Time 1 (0-5 mins) after smoking
[10] = dose 2.93% THC smoked, Time 2 (50-55 mins) after smoking
[11] = dose 2.93% THC smoked, Time 3 (100-105 mins) after smoking

Q: For `CCCCCc1cc(O)c2c(c1)OC(C)(C)[C@@H]1CCC(C)=C[C@@H]21` [THC, delta-9-tetrahydrocannabinol], which “relative degree of impairment relative to its initial value” (subjects [1]) is on record?
A: The value was “about half”.

Q: And the “blood content of THC relative to its initial value” [2]?
A: Its value is about 10%.

Q: And the “% impaired” value (subjects [3]; [6])?
A: The value was 23%.

Q: What about the “% impaired” value (subjects [3]; [7]) of the same compound?
A: The value was 23%.

Q: And the “% impaired” value (subjects [3]; [8])?
A: The value was 15%.

Q: And the “% impaired” value (subjects [3]; [9])?
A: Its value is 46%.

Q: What about the “% impaired” value (subjects [3]; [10]) of the same compound?
A: The value was 41%.

Q: What about the “% impaired” value (subjects [3]; [11]) of the same compound?
A: The value was 28%.

Q: What about the “time THC can be detected after use, blood and oral fluid testing” value ([4]; most cases) of the same compound?
A: The value was 2 to 24 h.

Q: And the “time THC can be detected after use, blood and oral fluid testing” value ([4]; some heavy users)?
A: Its value is “up to 2 weeks”.

Q: What about the “time THC is detectible after inhalation, hair testing” value ([4]; hair) of the same compound?
A: Its value is “up to 90 days”.

Q: And the “time THC can be detected after inhalation, urine testing” value ([4]; urine, infrequent users, passive inhalation up to 22 minutes)?
A: Its value is 7 to 10 days.

Q: What about the “Blood THC” value [5, 6] of the same compound?
A: The value was 55.5 ng/mL.

Q: And the “Blood THC” value [5, 7]?
A: The value was 6.8 ng/mL.

Q: And the “Blood THC” value [5, 8]?
A: Its value is 3.7 ng/mL.

Q: What about the “Blood THC” value [5, 9] of the same compound?
A: The value was 70.6 ng/mL.

Q: What about the “Blood THC” value [5, 10] of the same compound?
A: The value was 6.2 ng/mL.

Q: And the “Blood THC” value [5, 11]?
A: Its value is 3.2 ng/mL.
